Data on 40 compounds can be found in ChEMBL document CHEMBL1135872, “Oxyaniliniums as acetylcholinesterase inhibitors for the reversal of neuromuscular block” (Bioorg Med Chem Lett, 2002).

One assay concerns the target Acetylcholinesterase (Homo sapiens, UniProt P22303). The assay can be described thus: In vitro inhibitory activity against human recombinant AChE.
The species named for the next assay is Cavia porcellus. The assay can be described thus: In vitro potency in reversing vecuronium-induced block in guinea pig hemidiaphram. Format: functional.
Assay [1] concerns Felis catus. The assay is described as follows: Tested for effect on autonomic vagal membrane at dose of 1.28 umol/kg in cat. Format: functional.
Assay [2] relates to Felis catus. The assay can be described thus: Tested for change in LV dp/dt at dose of 1.28 umol/kg in cat. Format: functional.
The test system of assay [3] is Felis catus. The assay is described as follows: Tested for change in LV pressure at dose of 1.28 umol/kg in cat. Format: functional.
For assay [4], the system named is Felis catus. The assay can be described thus: Tested for change in arterial pressure at dose of 1.28 umol/kg in cat. Format: functional, Artery.
Assay [5] is filed under the species Felis catus. The assay is described as follows: Effective dose required to reverse vecuronium-induced neuromuscular block in cat. Format: functional.
Assay [6] deals with Felis catus. The assay can be described thus: Tested for effect on nictitating membrane at dose of 1.28 umol/kg in cat. Format: functional.
Assay [7] concerns Felis catus. The assay is described as follows: Tested for change in heart rate at dose of 1.28 umol/kg in cat. Format: functional.
Assay [8] relates to Felis catus. The assay can be described thus: Tested for change in LV pressure at dose of 2.56 umol/kg in cat. Format: functional.
The subject of assay [9] is Felis catus. The assay is described as follows: Tested for effect on autonomic vagal membrane at dose of 2.56 umol/kg in cat. Format: functional.
Assay [10] deals with Felis catus. The assay can be described thus: Tested for change in LV dp/dt at dose of 2.56 umol/kg in cat. Format: functional.
For assay [11], the system named is Felis catus. The assay is described as follows: Tested for effect on nictitating membrane at dose of 2.56 umol/kg in cat. Format: functional.
Assay [12] has as its system Felis catus. The assay can be described thus: Tested for change in heart rate at dose of 2.56 umol/kg in cat. Format: functional.
Assay [13] has as its system Felis catus. The assay is described as follows: Tested for change in arterial pressure at dose of 2.56 umol/kg in cat. Format: functional, Artery.
Assay [14] deals with Felis catus. The assay is described as follows: Tested for change in arterial pressure at dose of 2.1 umol/kg in cat. Format: functional, Artery.
Assay [15] concerns Felis catus. The assay can be described thus: Tested for effect on nictitating membrane at dose of 2.1 umol/kg in cat. Format: functional.
For assay [16], the system named is Felis catus. The assay is described as follows: Tested for change in LV dp/dt at dose of 2.1 umol/kg in cat. Format: functional.
The test system of assay [17] is Felis catus. The assay is described as follows: Tested for change in LV pressure at dose of 2.1 umol/kg in cat. Format: functional.
For assay [18], the system named is Felis catus. The assay can be described thus: Tested for effect on autonomic vagal membrane at dose of 2.1 umol/kg in cat. Format: functional.
Assay [19] has as its system Felis catus. The assay is described as follows: Tested for change in heart rate at dose of 2.1 umol/kg in cat. Format: functional.
For assay [20], the system named is Felis catus. The assay is described as follows: Tested for effect on nictitating membrane at dose of 1.026 umol/kg in cat. Format: functional.
The subject of assay [21] is Felis catus. The assay is described as follows: Tested for change in LV dp/dt at dose of 1.026 umol/kg in cat. Format: functional.
Assay [22] concerns Felis catus. The assay can be described thus: Tested for change in heart rate at dose of 1.026 umol/kg in cat. Format: functional.
Assay [23] relates to Felis catus. The assay is described as follows: Tested for change in arterial pressure at dose of 1.026 umol/kg in cat. Format: functional, Artery.
For assay [24], the system named is Felis catus. The assay is described as follows: Tested for change in LV pressure at dose of 1.026 umol/kg in cat. Format: functional.
Assay [25] deals with Felis catus. The assay can be described thus: Tested for effect on autonomic vagal membrane at dose of 1.026 umol/kg in cat. Format: functional.
The subject of assay [26] is Felis catus. The assay is described as follows: Tested for effect on autonomic vagal membrane at dose of 0.076 umol/kg in cat. Format: functional.
Assay [27] has as its system Felis catus. The assay can be described thus: Tested for change in LV pressure at dose of 0.076 umol/kg in cat. Format: functional.
Assay [28] deals with Felis catus. The assay is described as follows: Tested for effect on nictitating membrane at dose of 0.076 umol/kg in cat. Format: functional.
Assay [29] relates to Felis catus. The assay is described as follows: Tested for change in heart rate at dose of 0.076 umol/kg in cat. Format: functional.
In assay [30] the test system is Felis catus. The assay is described as follows: Tested for change in arterial pressure at dose of 0.076 umol/kg in cat. Format: functional, Artery.
For assay [31], the system named is Felis catus. The assay can be described thus: Tested for change in LV dp/dt at dose of 0.076 umol/kg in cat. Format: functional.

Acetylcholinesterase, sequence (P22303 whole entry): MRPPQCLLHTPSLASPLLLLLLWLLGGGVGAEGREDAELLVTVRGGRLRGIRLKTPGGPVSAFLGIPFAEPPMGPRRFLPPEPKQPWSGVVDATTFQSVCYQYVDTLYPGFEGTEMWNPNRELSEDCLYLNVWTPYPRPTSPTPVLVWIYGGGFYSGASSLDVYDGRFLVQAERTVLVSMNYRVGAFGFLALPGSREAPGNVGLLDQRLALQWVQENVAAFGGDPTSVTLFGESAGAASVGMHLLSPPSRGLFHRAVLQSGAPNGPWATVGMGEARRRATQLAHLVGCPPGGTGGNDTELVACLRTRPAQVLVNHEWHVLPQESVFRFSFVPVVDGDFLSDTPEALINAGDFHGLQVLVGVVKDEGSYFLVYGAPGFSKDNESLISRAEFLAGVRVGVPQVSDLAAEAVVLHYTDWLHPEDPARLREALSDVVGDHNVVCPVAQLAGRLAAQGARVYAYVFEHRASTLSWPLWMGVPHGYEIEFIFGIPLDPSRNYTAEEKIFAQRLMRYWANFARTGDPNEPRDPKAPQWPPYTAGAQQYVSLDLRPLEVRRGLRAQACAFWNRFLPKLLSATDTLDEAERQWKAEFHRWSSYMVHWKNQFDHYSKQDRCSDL

A word on the IC50: it is the concentration needed to halve the response being measured. Turning to `C[N+](C)(Cc1ccccc1)c1ccccc1O`, the IC50 at Acetylcholinesterase is more than 10 µM; in the assay listed under Cavia porcellus it was more than 3 µM.

For `COc1cccc(C[N+](C)(C)Cc2ccccc2)c1`, the IC50 on Acetylcholinesterase is more than 10 µM.

With `C=CC[N+](C)(C)c1cccc(OC)c1`, the IC50 is more than 10 µM on Acetylcholinesterase and more than 3 µM in the assay listed under Cavia porcellus.

Regarding `COc1cccc([N+](C)(C)Cc2ccccc2)c1`, the IC50 at Acetylcholinesterase is more than 10 µM; in the assay filed under Cavia porcellus, more than 3 µM.

For the compound `C=C(C)C[N+](C)(C)c1ccccc1OC`, the IC50 at Acetylcholinesterase is more than 10 µM; in the assay listed under Cavia porcellus it was more than 3 µM.

Regarding `COc1ccc(C(=O)CCc2cccc([N+](C)(C)C)c2)cc1OC`, the IC50 at Acetylcholinesterase was more than 10 µM.

As for `C=C(C)C[N+](C)(C)c1ccc(O)cc1`, the results for the IC50 at Acetylcholinesterase and in the assay listed under Cavia porcellus were more than 10 µM and more than 3 µM, respectively.

As to `C=CC[N+](C)(C)Cc1cccc(O)c1`, the IC50 was more than 10 µM at Acetylcholinesterase and more than 3 µM in the assay listed under Cavia porcellus.

For `C=C(C)C[N+](C)(C)c1ccccc1O`, the IC50 was more than 10 µM at Acetylcholinesterase and more than 3 µM in the assay filed under Cavia porcellus.

Turning to `C[N+](C)(Cc1ccccc1)c1ccc(O)cc1`, the IC50 at Acetylcholinesterase was more than 10 µM; in the assay listed under Cavia porcellus, more than 3 µM.

Take `CC(=O)Oc1ccccc1[N+](C)(C)Cc1ccccc1`: the IC50 on Acetylcholinesterase is more than 10 µM; in the assay filed under Cavia porcellus, more than 3 µM.

In the case of `COc1ccc(C(=O)CCc2ccc([N+](C)(C)Cc3ccccc3)cc2)cc1OC`, the IC50 at Acetylcholinesterase stood at 1.3 µM; in the assay listed under Cavia porcellus, 4.11 µM.

As for `COc1cccc(C[N+](C)(C)C)c1`, the IC50 on Acetylcholinesterase is more than 10 µM.

As for `C=C(C)C[N+](C)(C)c1cccc(OC)c1`, the IC50 at Acetylcholinesterase was more than 10 µM; in the assay filed under Cavia porcellus, more than 3 µM.

For the compound `COc1ccc([N+](C)(C)Cc2ccccc2)cc1`, the IC50 at Acetylcholinesterase is more than 10 µM; in the assay listed under Cavia porcellus, more than 3 µM.

For `C=CC[N+](C)(C)c1ccc(OC(C)=O)cc1`, the IC50 was more than 10 µM at Acetylcholinesterase and more than 3 µM in the assay listed under Cavia porcellus.

As to `C=CC[N+](C)(C)c1ccc(OC)cc1`, the IC50 at Acetylcholinesterase was more than 10 µM; in the assay listed under Cavia porcellus, more than 3 µM.

Take `C[N+](C)(C)Cc1cccc(O)c1`: the IC50 was more than 10 µM at Acetylcholinesterase and more than 3 µM in the assay listed under Cavia porcellus.

Take `CC(=O)Oc1cccc([N+](C)(C)Cc2ccccc2)c1`: the IC50 on Acetylcholinesterase is more than 10 µM; in the assay filed under Cavia porcellus, more than 3 µM.

As usually defined, the ED50 is the dose that gives a 50% effect, or the effect in half of the subjects. Low values mean greater potency, high ones weaker potency. Regarding `C=CC[N+](C)(C)c1ccccc1OC.[Br-]`, the Change in the assay with Felis catus [1] is 41%; in the assay with Felis catus [2], 9%; in the assay with Felis catus [3], 9%; in the assay with Felis catus [4], 24%; with Felis catus [6], 2%; in the assay with Felis catus [7], 2%. The IC50 at Acetylcholinesterase came out at 1 µM; in the assay filed under Cavia porcellus it was 2.89 µM. In the assay listed under Felis catus [5], the 50% effect level (ED50) was put at a dose of 0.22 µmol/kg.

Regarding `C=CC[N+](C)(C)c1ccc(O)cc1`, the IC50 was more than 10 µM on Acetylcholinesterase and more than 3 µM in the assay filed under Cavia porcellus.

For the compound `C=CC[N+](C)(C)c1ccc(OCC(=O)c2ccc(OC)c(OC)c2)cc1`, the IC50 at Acetylcholinesterase is 10 µM; in the assay listed under Cavia porcellus it was 0.5 µM.

For the compound `COc1ccc(C(=O)CCc2cccc([N+](C)(C)Cc3ccccc3)c2)cc1OC`, the IC50 at Acetylcholinesterase was 1.04 µM; in the assay filed under Cavia porcellus, more than 3 µM.

For the compound `C=CC[N+](C)(C)c1cccc(OC(C)=O)c1`, the IC50 turned out to be 1 µM on Acetylcholinesterase and 3.87 µM in the assay listed under Cavia porcellus.

`C=CC[N+](C)(C)Cc1cccc(OC)c1`: the IC50 is more than 10 µM on Acetylcholinesterase and more than 3 µM in the assay filed under Cavia porcellus.

On to `COc1ccc(C(=O)CCc2ccc([N+](C)(C)C)cc2)cc1OC`, for which the IC50 at Acetylcholinesterase was 3 µM; in the assay listed under Cavia porcellus, 2 µM.

Turning to `COc1ccc(C(=O)COc2cccc([N+](C)(C)Cc3ccccc3)c2)cc1OC.[Br-]`, the Change with Felis catus [8] came out at 63%; with Felis catus [9] it was 5%; in the assay on Felis catus [10], 82%; with Felis catus [11], 34%; with Felis catus [12] it was 8%; in the assay on Felis catus [13] it was 56%. The values for the IC50 on Acetylcholinesterase and in the assay listed under Cavia porcellus were 0.33 µM and 1.69 µM, respectively.

Turning to `COc1ccc(C(=O)COc2ccc([N+](C)(C)C)cc2)cc1OC`, the figures for the IC50 on Acetylcholinesterase and in the assay listed under Cavia porcellus were 10 µM and 9.8 µM, respectively.

In the case of `C=CC[N+](C)(C)c1ccccc1O.[Br-]`, the Change is 2% with Felis catus [14]; 5% in the assay on Felis catus [15]; 8% in the assay with Felis catus [16]; 12% in the assay on Felis catus [17]; 5% with Felis catus [18]; 1% in the assay with Felis catus [19]. Further, the IC50 stood at 1.85 µM at Acetylcholinesterase and 74 µM in the assay filed under Cavia porcellus. The compound further had a median effective dose (ED50) in the assay listed under Felis catus [5] of 0.5 µmol/kg.

Take `C[N+](C)(Cc1ccccc1)c1cccc(O)c1`: the IC50 was more than 10 µM on Acetylcholinesterase and more than 3 µM in the assay listed under Cavia porcellus.

For the compound `C=C(C)C[N+](C)(C)c1cccc(O)c1`, the half-inhibitory concentration (IC50) is more than 10 µM on Acetylcholinesterase and more than 3 µM in the assay listed under Cavia porcellus.

With `C[N+](C)(Cc1ccccc1)Cc1cccc(O)c1`, on Acetylcholinesterase, the IC50 was more than 10 µM.

Turning to `C=CC[N+](C)(C)c1cccc(O)c1`, the IC50 at Acetylcholinesterase stood at 3 µM; in the assay listed under Cavia porcellus, 13 µM.

Turning to `C=CCC[N+](C)(C)c1ccccc1O`, the figures for the IC50 at Acetylcholinesterase and in the assay filed under Cavia porcellus were 10 µM and more than 10 µM, respectively.

Consider `COc1ccccc1[N+](C)(C)Cc1ccccc1`, for which the IC50 is more than 10 µM at Acetylcholinesterase and more than 3 µM in the assay listed under Cavia porcellus.

With `COc1ccc(C(=O)COc2ccc([N+](C)(C)Cc3ccccc3)cc2)cc1OC`, the IC50 at Acetylcholinesterase was determined as 10 µM; in the assay listed under Cavia porcellus, 19.4 µM.

For `COc1ccc(C(=O)COc2cccc([N+](C)(C)C)c2)cc1OC`, the figures for the IC50 on Acetylcholinesterase and in the assay filed under Cavia porcellus were 10 µM and 7.08 µM, respectively.

`CC(=O)Oc1ccc([N+](C)(C)Cc2ccccc2)cc1`: the IC50 was more than 10 µM at Acetylcholinesterase and more than 3 µM in the assay filed under Cavia porcellus.

`CC[N+](C)(C)c1cccc(O)c1.[Br-]` [EDROPHONIUM BROMIDE]: the Change is 7% in the assay with Felis catus [20]; 20% with Felis catus [21]; 2% in the assay with Felis catus [22]; 22% in the assay with Felis catus [23]; 23% in the assay on Felis catus [24]; -67% in the assay on Felis catus [25]. Also, in the assay listed under Cavia porcellus, the IC50 is 2.77 µM.

On to `CN(C)C(=O)Oc1cccc([N+](C)(C)C)c1.[Br-]` [NEOSTIGMINE BROMIDE], for which the Change with Felis catus [26] was 62%; in the assay with Felis catus [27], -14%; in the assay with Felis catus [28], 6%; in the assay on Felis catus [29], 4%; in the assay on Felis catus [30], 22%; in the assay with Felis catus [31], 12%. Besides, the IC50 in the assay listed under Cavia porcellus was determined as 0.028 µM.
